In PMC9529548 (Computational and Structural Biotechnology Journal, 2022):

Test system: T1, E. coli transhydrogenase (PntA (α) and PntB (β))
T1 construct: full-length wild-type holoenzyme from E. coli membranes, DDM-solubilised, Ni-NTA (tag not described) and SEC; dimer of two identical protomers (alpha2beta2)
Assay: spectrophotometric reduction of APAD+ by NADPH, […] nm
Type: biochemical, Escherichia coli
Settings: 100 uM APAD+, 100 uM NADPH, 25 mM HEPES pH 7.5, 50 mM KCl, asolectin, 0.1% DDM, 37 °C; reverse reaction

T1 sequence (P0AB67 whole entry): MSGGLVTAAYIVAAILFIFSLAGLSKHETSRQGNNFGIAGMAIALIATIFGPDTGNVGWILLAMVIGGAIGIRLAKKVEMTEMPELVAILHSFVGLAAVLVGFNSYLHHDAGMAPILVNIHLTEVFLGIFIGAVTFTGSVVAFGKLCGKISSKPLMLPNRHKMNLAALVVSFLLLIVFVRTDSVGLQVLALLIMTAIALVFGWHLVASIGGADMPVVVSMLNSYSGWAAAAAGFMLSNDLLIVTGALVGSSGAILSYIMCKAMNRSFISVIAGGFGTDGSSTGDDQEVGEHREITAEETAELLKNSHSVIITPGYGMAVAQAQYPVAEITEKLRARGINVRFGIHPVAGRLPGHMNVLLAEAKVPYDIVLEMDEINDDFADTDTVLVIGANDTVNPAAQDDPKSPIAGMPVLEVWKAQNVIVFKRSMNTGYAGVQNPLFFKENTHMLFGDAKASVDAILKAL
T1 sequence (P07001 whole entry, further chain): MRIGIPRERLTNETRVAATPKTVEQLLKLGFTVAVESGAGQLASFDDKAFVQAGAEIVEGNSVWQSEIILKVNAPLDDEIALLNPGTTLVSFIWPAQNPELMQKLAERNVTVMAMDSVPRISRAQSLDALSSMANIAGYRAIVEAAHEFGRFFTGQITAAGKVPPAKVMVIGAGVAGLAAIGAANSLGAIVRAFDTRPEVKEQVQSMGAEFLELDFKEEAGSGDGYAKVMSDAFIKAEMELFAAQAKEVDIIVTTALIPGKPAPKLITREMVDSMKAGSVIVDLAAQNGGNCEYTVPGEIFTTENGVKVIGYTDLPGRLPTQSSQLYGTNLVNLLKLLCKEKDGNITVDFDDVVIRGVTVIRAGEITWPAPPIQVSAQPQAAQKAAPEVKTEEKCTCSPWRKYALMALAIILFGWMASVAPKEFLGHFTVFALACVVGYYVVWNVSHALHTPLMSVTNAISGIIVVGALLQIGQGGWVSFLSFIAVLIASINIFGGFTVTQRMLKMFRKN

In the case of `CC(=O)c1ccc[n+]([C@@H]2O[C@H](COP(=O)(O)OP(=O)(O)OC[C@H]3O[C@@H](n4cnc5c(N)ncnc54)[C@H](O)[C@@H]3O)[C@@H](O)[C@H]2O)c1` [APAD^+], the “spectrophotometric reduction of APAD+ by NADPH, 375 nm” value is reported as “reverse transhydrogenase activity of the protein in DDM was measured using the reduction of APAD^+”.
